Assay results taken from patent publication US9809587B2, “Pesticidally active heterocyclic derivatives with sulphur containing substituents” (Syngenta Participations AG, priority 2014, dated 2017).

Assays:
Type in all cases: in vivo
[1] = test system: Diabrotica balteata (Corn Root Worm); assay: Diabrotica balteata (corn root worm), sprayed maize sprouts; conditions: 96 h, application rate of 200 ppm, L2 larvae on maize sprouts, 4 days after infestation
Description: Example B2: Diabrotica balteata (Corn Root Worm)
Maize sprouts, placed on an agar layer in 24-well microtiter plates were treated with aqueous test solutions prepared from 10′000 ppm DMSO stock solutions by spraying. After drying, the plates were infested with L2 larvae (6 to 10 per well). The samples were assessed for mortality and growth inhibition in comparison to untreated samples 4 days after infestation.

[2] = test system: Euschistus heros (Neotropical Brown Stink Bug); assay: Euschistus heros (neotropical brown stink bug), sprayed soybean leaf; conditions: 120 h, application rate of 200 ppm, N-2 nymphs on soybean leaf, 5 days after infestation
Description: Example B3: Euschistus heros (Neotropical Brown Stink Bug)
Soybean leaf on agar in 24-well microtiter plates were sprayed with aqueous test solutions prepared from 10′000 ppm DMSO stock solutions. After drying the leaf were infested with N-2 nymphs. The samples were assessed for mortality in comparison to untreated samples 5 days after infestation.

[3] = test system: Myzus persicae (Green Peach Aphid); assay: Myzus persicae (green peach aphid), sprayed sunflower leaf discs; conditions: foliar, 144 h, application rate of 200 ppm, mixed ages on sunflower leaf discs, 6 days after infestation
Description: Example B4: Myzus persicae (Green Peach Aphid)
Sunflower leaf discs were placed on agar in a 24-well microtiter plate and sprayed with aqueous test solutions prepared from 10′000 ppm DMSO stock solutions. After drying, the leaf discs were infested with an aphid population of mixed ages. The samples were assessed for mortality 6 days after infestation.

[4] = test system: Plutella xylostella (Diamond Back Moth); assay: Plutella xylostella (diamond back moth), treated artificial diet; conditions: 120 h, application rate of 200 ppm, L2 larvae on artificial diet, 5 days after infestation, read-out: effect in at least one of the two categories (mortality or growth inhibition)
Description: Example B6: Plutella xylostella (Diamond Back Moth)
24-well microtiter plates with artificial diet were treated with aqueous test solutions prepared from 10′000 ppm DMSO stock solutions by pipetting. After drying, the plates were infested with L2 larvae (10 to 15 per well). The samples were assessed for mortality and growth inhibition in comparison to untreated samples 5 days after infestation.
The following compounds gave an effect of at least 80% in at least one of the two categories (mortality or growth inhibition) at an application rate of 200 ppm: […]

[5] = test system: Spodoptera littoralis (Egyqptian Cotton Leaf Worm); assay: Spodoptera littoralis (Egyptian cotton leaf worm), sprayed cotton leaf discs; conditions: foliar, 72 h, application rate of 200 ppm, L1 larvae on cotton leaf discs, 3 days after infestation
Description: Example B7: Spodoptera littoralis (Egyqptian Cotton Leaf Worm)
Cotton leaf discs were placed on agar in 24-well microtiter plates and sprayed with aqueous test solutions prepared from 10′000 ppm DMSO stock solutions. After drying the leaf discs were infested with five L1 larvae. The samples were assessed for mortality, anti-feedant effect, and growth inhibition in comparison to untreated samples 3 days after infestation. Control of Spodoptera littoralis by a test sample is when at least one of mortality, anti-feedant effect, and growth inhibition is higher than the untreated sample.

CCS(=O)(=O)c1cc(-c2nc(C)cc(C3CC3)n2)cnc1-c1nc2cc(C(F)(F)F)ncc2n1C [Compound P23, 2-[5-(4-cyclopropyl-6-methyl-pyrimidin-2-yl)-3-ethylsulfonyl-2-pyridyl]-3-methyl-6-(trifluoromethyl)imidazo[4,5-c]pyridine]
≥ 80%: mortality at 200 ppm [1] | mortality at 200 ppm [2] | mortality at 200 ppm [3] | percent effect (mortality or growth inhibition) at 200 ppm [4] | percent control (mortality, anti-feedant effect or growth inhibition) at 200 ppm [5]

CCS(=O)(=O)c1cc(-c2ccc3ccccc3n2)cnc1-c1nc2cc(C(F)(F)F)ncc2n1C [Compound P62]
≥ 80%: mortality at 200 ppm [2] | mortality at 200 ppm [3] | percent effect (mortality or growth inhibition) at 200 ppm [4]

CCS(=O)(=O)c1cc(-c2cc(C)oc2C#N)cnc1-c1nc2cc(C(F)(F)F)ncc2n1C [Compound P78]
≥ 80%: mortality at 200 ppm [1] | mortality at 200 ppm [3]

CCS(=O)(=O)c1cc(-c2ccnc(C#N)n2)cnc1-c1nc2cc(C(F)(F)F)ncc2n1C [Compound P107]
≥ 80%: mortality at 200 ppm [1] | percent effect (mortality or growth inhibition) at 200 ppm [4] | percent control (mortality, anti-feedant effect or growth inhibition) at 200 ppm [5]

CCS(=O)(=O)c1cc(-c2cnc(Cl)c(C)c2)cnc1-c1nc2cc(C(F)(F)F)ncc2n1C [Compound P4]
≥ 80%: mortality at 200 ppm [2] | mortality at 200 ppm [3] | percent effect (mortality or growth inhibition) at 200 ppm [4] | percent control (mortality, anti-feedant effect or growth inhibition) at 200 ppm [5]

CCS(=O)(=O)c1cc(-c2ccc(C)s2)cnc1-c1nc2cc(C(F)(F)F)ncc2n1C [Compound P69]
≥ 80%: mortality at 200 ppm [2] | mortality at 200 ppm [3] | percent effect (mortality or growth inhibition) at 200 ppm [4] | percent control (mortality, anti-feedant effect or growth inhibition) at 200 ppm [5]

CCS(=O)(=O)c1cc(-n2nc(C)cc2C)cnc1-c1nc2cc(C(F)(F)F)ncc2n1C [Compound P15]
≥ 80%: mortality at 200 ppm [1] | mortality at 200 ppm [2] | mortality at 200 ppm [3] | percent effect (mortality or growth inhibition) at 200 ppm [4] | percent control (mortality, anti-feedant effect or growth inhibition) at 200 ppm [5]

CCS(=O)(=O)c1cc(-n2ncc3ccccc32)cnc1-c1nc2cc(C(F)(F)F)ncc2n1C [Compound P24]
≥ 80%: percent effect (mortality or growth inhibition) at 200 ppm [4] | percent control (mortality, anti-feedant effect or growth inhibition) at 200 ppm [5]

CCS(=O)(=O)c1cc(-c2cnc3nc(C(F)(F)F)cnn23)cnc1-c1nc2cc(C(F)(F)F)ncc2n1C [Compound P38]
≥ 80%: mortality at 200 ppm [1] | mortality at 200 ppm [2] | percent effect (mortality or growth inhibition) at 200 ppm [4] | percent control (mortality, anti-feedant effect or growth inhibition) at 200 ppm [5]

CCS(=O)(=O)c1cc(-c2ccsc2C)cnc1-c1nc2cc(C(F)(F)F)ncc2n1C [Compound P68]
≥ 80%: mortality at 200 ppm [2] | percent control (mortality, anti-feedant effect or growth inhibition) at 200 ppm [5]

CCS(=O)(=O)c1cc(-n2ccc(C#N)n2)cnc1-c1nc2cc(C(F)(F)F)ncc2n1C [Compound P98]
≥ 80%: mortality at 200 ppm [1] | mortality at 200 ppm [2] | mortality at 200 ppm [3] | percent effect (mortality or growth inhibition) at 200 ppm [4] | percent control (mortality, anti-feedant effect or growth inhibition) at 200 ppm [5]

CCS(=O)(=O)c1cc(-c2ccc(OC)nc2)cnc1-c1nc2cc(C(F)(F)F)ncc2n1C [Compound P1, 2-[3-ethylsulfonyl-5-(6-methoxy-3-pyridyl)-2-pyridyl]-3-methyl-6-(trifluoromethyl)imidazo[4,5-c]pyridine]
≥ 80%: mortality at 200 ppm [1] | mortality at 200 ppm [3] | percent effect (mortality or growth inhibition) at 200 ppm [4] | percent control (mortality, anti-feedant effect or growth inhibition) at 200 ppm [5]

CCS(=O)(=O)c1cc(-c2ccc(C#N)nc2)cnc1-c1nc2cc(C(F)(F)F)ncc2n1C [Compound P65]
≥ 80%: mortality at 200 ppm [1] | mortality at 200 ppm [2] | mortality at 200 ppm [3] | percent effect (mortality or growth inhibition) at 200 ppm [4] | percent control (mortality, anti-feedant effect or growth inhibition) at 200 ppm [5]

CCS(=O)(=O)c1cc(-c2cncc3ccccc23)cnc1-c1nc2cc(C(F)(F)F)ncc2n1C [Compound P7]
≥ 80%: mortality at 200 ppm [1] | percent effect (mortality or growth inhibition) at 200 ppm [4] | percent control (mortality, anti-feedant effect or growth inhibition) at 200 ppm [5]

CCS(=O)(=O)c1cc(-c2ncc(N)nc2C)cnc1-c1nc2cc(C(F)(F)F)ncc2n1C [Compound P63]
≥ 80%: mortality at 200 ppm [2] | mortality at 200 ppm [3] | percent effect (mortality or growth inhibition) at 200 ppm [4] | percent control (mortality, anti-feedant effect or growth inhibition) at 200 ppm [5]

CCS(=O)(=O)c1cc(-c2ccc(SC)nc2)cnc1-c1nc2cc(C(F)(F)F)ncc2n1C [Compound P75]
≥ 80%: mortality at 200 ppm [1] | mortality at 200 ppm [2] | mortality at 200 ppm [3] | percent effect (mortality or growth inhibition) at 200 ppm [4]

CCS(=O)(=O)c1cc(-c2cnc3nc(C(F)(F)F)ccn23)cnc1-c1nc2cc(C(F)(F)F)ncc2n1C [Compound P36]
≥ 80%: mortality at 200 ppm [1] | mortality at 200 ppm [2] | mortality at 200 ppm [3] | percent effect (mortality or growth inhibition) at 200 ppm [4] | percent control (mortality, anti-feedant effect or growth inhibition) at 200 ppm [5]

CCS(=O)(=O)c1cc(-c2ccc3[nH]c(=O)[nH]c3c2)cnc1-c1nc2cc(C(F)(F)F)ncc2n1C [Compound P76]
≥ 80%: mortality at 200 ppm [1]

CCSc1cc(-n2nc(C)cc2C)cnc1-c1nc2cc(C(F)(F)F)ncc2n1C [Compound P13]
≥ 80%: mortality at 200 ppm [1]

CCS(=O)(=O)c1cc(-c2c(C(F)(F)F)n[nH]c2C)cnc1-c1nc2cc(C(F)(F)F)ncc2n1C [Compound P30]
≥ 80%: mortality at 200 ppm [1] | mortality at 200 ppm [2] | mortality at 200 ppm [3]

CCS(=O)(=O)c1cc(-c2ncc(OC)cn2)cnc1-c1nc2cc(C(F)(F)F)ncc2n1C [Compound P97]
≥ 80%: mortality at 200 ppm [2] | mortality at 200 ppm [3] | percent effect (mortality or growth inhibition) at 200 ppm [4] | percent control (mortality, anti-feedant effect or growth inhibition) at 200 ppm [5]

CCS(=O)(=O)c1cc(-c2ccc(-c3ccc(F)cc3)nc2)cnc1-c1nc2cc(C(F)(F)F)ncc2n1C [Compound P12]
≥ 80%: mortality at 200 ppm [1] | mortality at 200 ppm [2] | mortality at 200 ppm [3] | percent effect (mortality or growth inhibition) at 200 ppm [4] | percent control (mortality, anti-feedant effect or growth inhibition) at 200 ppm [5]

CCS(=O)(=O)c1cc(-c2ccc3nccn3c2C)cnc1-c1nc2cc(C(F)(F)F)ncc2n1C [Compound P42]
≥ 80%: mortality at 200 ppm [2] | mortality at 200 ppm [3]

CCS(=O)(=O)c1cc(-c2cnc(O)nc2O)cnc1-c1nc2cc(C(F)(F)F)ncc2n1C [Compound P79]
≥ 80%: percent effect (mortality or growth inhibition) at 200 ppm [4]

CCS(=O)(=O)c1cc(-c2ccncc2C#N)cnc1-c1nc2cc(C(F)(F)F)ncc2n1C [Compound P73]
≥ 80%: mortality at 200 ppm [1] | mortality at 200 ppm [2] | mortality at 200 ppm [3] | percent effect (mortality or growth inhibition) at 200 ppm [4]

CCS(=O)(=O)c1cc(-n2nc(C(F)(F)F)cc2-c2ccc(F)cc2)cnc1-c1nc2cc(C(F)(F)F)ncc2n1C [Compound P28]
≥ 80%: mortality at 200 ppm [1] | percent effect (mortality or growth inhibition) at 200 ppm [4] | percent control (mortality, anti-feedant effect or growth inhibition) at 200 ppm [5]

CCS(=O)(=O)c1cc(-c2ccnc(C#N)c2)cnc1-c1nc2cc(C(F)(F)F)ncc2n1C [Compound P99]
≥ 80%: mortality at 200 ppm [1] | mortality at 200 ppm [2] | percent effect (mortality or growth inhibition) at 200 ppm [4]

CCSc1cc(-n2cc(Cl)cn2)cnc1-c1nc2cc(C(F)(F)F)ncc2n1C [Compound P14, 2-[5-(4-chloropyrazol-1-yl)-3-ethylsulfanyl-2-pyridyl]-3-methyl-6-(trifluoromethyl)imidazo[4,5-c]pyridine]
≥ 80%: mortality at 200 ppm [1] | percent effect (mortality or growth inhibition) at 200 ppm [4] | percent control (mortality, anti-feedant effect or growth inhibition) at 200 ppm [5]

CCS(=O)(=O)c1cc(-c2cnc3ccccn23)cnc1-c1nc2cc(C(F)(F)F)ncc2n1C [Compound P51]
≥ 80%: mortality at 200 ppm [2] | mortality at 200 ppm [3] | percent effect (mortality or growth inhibition) at 200 ppm [4] | percent control (mortality, anti-feedant effect or growth inhibition) at 200 ppm [5]

CCS(=O)(=O)c1cc(-c2sccc2C)cnc1-c1nc2cc(C(F)(F)F)ncc2n1C [Compound P48]
≥ 80%: mortality at 200 ppm [1] | percent effect (mortality or growth inhibition) at 200 ppm [4] | percent control (mortality, anti-feedant effect or growth inhibition) at 200 ppm [5]

CCS(=O)(=O)c1cc(-n2ncc3cnc(C(F)(F)F)cc32)cnc1-c1nc2cc(C(F)(F)F)ncc2n1C [Compound P29]
≥ 80%: mortality at 200 ppm [1] | percent effect (mortality or growth inhibition) at 200 ppm [4] | percent control (mortality, anti-feedant effect or growth inhibition) at 200 ppm [5]
